Measurements from patent US10669240B2, “5-substituted indazole-3-carboxamides and preparation and use thereof” (Samumed, LLC, priority 2014, dated 2020).
Read-outs that look alike come from different tables or passages of the source.

How the values were obtained:
Assay type in all cases: cell-based
DYRK1A = DYRK1A (Homo sapiens (Human), UniProt Q13627); experiment: DYRK1A activity Tau assay: pSer396 Tau in SH-SY5Y cells by ELISA / western blot; conditions: overnight (16-18 h) exposure
[1] = system: primary human mesenchymal stem cells (hMSCs); experiment: Chondrogenesis assay in primary human mesenchymal stem cells, nodule count vs TGF-β3 positive control; conditions: 6 days; for Conc (nM) of Max. activity: 6-point dose-response 2700 nM to 10 nM, dose at which maximum chondrogenesis activity was reached; for Max. Activity as % TGF-β3 activity: relative to TGF-β3 (10 ng/mL) positive control; for Conc (nM) of 100% TGF-β3 activity: concentration required to induce chondrogenesis equivalent to TGF-β3 (10 ng/mL)
Text: The above synthesized compounds were screened using primary human mesenchymal stem cells (hMSCs) to determine their ability to induce chondrogenesis (process by which cartilage is developed).
Human Mesenchymal Stem Cell Culture:
Primary human mesenchymal stem cells (hMSCs) were purchased from Lonza (Walkersville, Md.) and expanded in Mesenchymal Stem Cell Growth Media (Lonza). Cells between passage 3 and 6 were used for the experiments.
Number of nodules in each well was normalized to the average of 3 DMSO treated wells on the same plate using Excel (Microsoft Inc.). The normalized averages (fold change over DMSO) of 3 replicate wells for each compound concentration were calculated. Due to solubility limitations of some of the compounds, curve fitting was incomplete leading to inaccurate EC50 determinations.
Using TGF-β3 as a positive control, the concentration of test compounds required to induce equivalent levels of chondrogenesis is reported. In addition, the maximum activity of each compound and the respective dose that each compound reached maximum chondrogenesis activity is reported.

[2] = system: Wnt activity (Wnt-responsive SP5 promoter luciferase reporter in SW480 cells); experiment: Wnt activity reporter assay: SW480 cells with SP5 promoter-driven firefly luciferase; conditions: 24 h after compound addition, read-out: Wnt inhibition
Text: The above synthesized compounds were screened using the assay procedure for Wnt activity described below.
Reporter cell lines were generated by stably transducing cells of cancer cell lines (e.g., colon cancer) with a lentiviral construct that include a Wnt-responsive promoter driving expression of the firefly luciferase gene.
Lentiviral constructs were made in which the SP5 promoter, a promoter having eight TCF/LEF binding sites derived from the SP5 promoter, was linked upstream of the firefly luciferase gene. The lentiviral constructs included a hygromycin resistance gene as a selectable marker. The SP5 promoter construct was used to transduce SW480 cells, a colon cancer cell line having a mutated APC gene that generates a truncated APC protein, leading to de-regulated accumulation of β-catenin.
Cultured SW480 cells bearing a reporter construct were distributed at approximately 10,000 cells per well into 384 well multiwell plates. Compounds were then added to the wells in half-log dilutions using a three micromolar top concentration. A series of control wells for each cell type received only buffer and compound solvent. Twenty-four hours after the addition of compound, reporter activity for luciferases was assayed, for example, by addition of the BrightGlo luminescence reagent (Promega) and the Victor3 plate reader (Perkin Elmer). Readings were normalized to DMSO only treated cells, and normalized activities were then used for the IC50 calculations.

Molecule | EC50 (DYRK1A) [nM] | Conc (nM) of Max. activity [1] [nM] | Max. Activity as % TGF-β3 activity [1] [%] | Conc (nM) of 100% TGF-β3 activity [1] [nM] | IC50 ([2]; Homo sapiens) [nM] | IC50 [2] [nM]
C#CCN1CCC(NC(=O)c2n[nH]c3ccc(-c4cccc(F)c4F)cc23)CC1 [Compound 367, 5-(2,3-Difluorophenyl)-N-(1-(prop-2-yn-1-yl)piperidin-4-yl)-1H-indazole-3-carboxamide] | 35 | 2700 | 65 |  |  | 
CC(C)N1CCC(NC(=O)c2n[nH]c3ccc(-c4cncc(Cl)c4)cc23)CC1 [Compound 1305, 5-(5-Chloropyridin-3-yl)-N-(1-isopropylpiperidin-4-yl)-1H-indazole-3-carboxamide] | 124 | 2700 | 121 | 2700 |  | 
O=C(NC1CC1)c1n[nH]c2ccc(-c3cncnc3)cc12 [Compound 1269, N-Cyclopropyl-5-(pyrimidin-5-yl)-1H-indazole-3-carboxamide] | 76 | 2700 | 53 |  |  | 
O=C(NC1CCCCC1)c1n[nH]c2ccc(-c3cncc(N4CCCC4)c3)cc12 [Compound 200, N-Cyclohexyl-5-(5-(pyrrolidin-1-yl)pyridin-3-yl)-1H-indazole-3-carboxamide] | 58 | 2700 | 138 | 2700 |  | 
O=C(Nc1cccc2cccnc12)c1n[nH]c2ccc(-c3cccnc3)cc12 [Compound 43, 5-(Pyridin-3-yl)-N-(quinolin-8-yl)-1H-indazole-3-carboxamide] | 2200 | 100 | 38 |  |  | 
O=C(Nc1cccnc1)c1n[nH]c2cc(F)c(-c3cccnc3)cc12 [Compound 99, 6-Fluoro-N,5-di(pyridin-3-yl)-1H-indazole-3-carboxamide] | 878 | 2700 | 64 |  |  | 
O=C(Nc1ccccn1)c1n[nH]c2cc(F)c(-c3cncc(CN4CCCCC4)c3)cc12 [Compound 1343, 6-Fluoro-5-(5-(piperidin-1-ylmethyl)pyridin-3-yl)-N-(pyridin-2-yl)-1H-indazole-3-carboxamide] | 2 | 2700 | 67 |  |  | 
O=C(Nc1ccnc(N2CCCCC2)c1)c1n[nH]c2ccc(-c3cccnc3)cc12 [Compound 103, N-(2-(Piperidin-1-yl)pyridin-4-yl)-5-(pyridin-3-yl)-1H-indazole-3-carboxamide] | 5 | 2700 | 130 | 2700 |  | 
CC(C)N1CCC(NC(=O)c2n[nH]c3ccc(-c4cccnc4)cc23)CC1 [Compound 90, N-(1-Isopropylpiperidin-4-yl)-5-(pyridin-3-yl)-1H-indazole-3-carboxamide] | 15 | 2700 | 169 | 2700 |  | 
O=C(Nc1ccnc(C(F)(F)F)c1)c1n[nH]c2ccc(-c3cccnc3)cc12 [Compound 45, 5-(Pyridin-3-yl)-N-(2-(trifluoromethyl)pyridin-4-yl)-1H-indazole-3-carboxamide] | 38 | 900 | 114 | 900 |  | 
CN1CCC2(CC1)CC(NC(=O)c1n[nH]c3ccc(-c4cncc(Cl)c4)cc13)C2 [Compound 1276, 5-(5-Chloropyridin-3-yl)-N-(7-methyl-7-azaspiro[3.5]nonan-2-yl)-1H-indazole-3-carboxamide] | 7 |  |  |  | 5200 | 
CN(C)[C@H]1CC[C@H](NC(=O)c2n[nH]c3ccc(-c4cccnc4)cc23)CC1 [Compound 1288, N-((1r,4r)-4-(Dimethylamino)cyclohexyl)-5-(pyridin-3-yl)-1H-indazole-3-carboxamide] | 1 |  |  |  | 1370 | 
O=C(NCc1cccc(F)c1)c1n[nH]c2ccc(-c3cncc(CN4CCCCC4)c3)cc12 [Compound 27, N-(3-Fluorobenzyl)-5-(5-(piperidin-1-ylmethyl)pyridin-3-yl)-1H-indazole-3-carboxamide] | 2 |  |  |  | 1760 | 
O=C(Nc1ccc(CN2CCCC2)cc1)c1n[nH]c2ccc(-c3cncnc3)cc12 [Compound 1328, 5-(Pyrimidin-5-yl)-N-(4-(pyrrolidin-1-ylmethyl)phenyl)-1H-indazole-3-carboxamide] | 4 |  |  |  | 3700 | 
CC(C)CN1CC(NC(=O)c2n[nH]c3ccc(-c4cncc(F)c4)cc23)C1 [Compound 1275, 5-(5-Fluoropyridin-3-yl)-N-(1-isobutylazetidin-3-yl)-1H-indazole-3-carboxamide] | 28 |  |  |  | 2700 | 
O=C(NC1(c2ccccc2)CC1)c1n[nH]c2ccc(-c3cncc(CN4CCC(F)(F)C4)c3)cc12 [Compound 35, 5-(5-((3,3-Difluoropyrrolidin-1-yl)methyl)pyridin-3-yl)-N-(1-phenylcyclopropyl)-1H-indazole-3-carboxamide] | 85 |  |  |  | 6390 | 
O=C(NC1CCN(C2COC2)CC1)c1n[nH]c2ccc(-c3cccc(F)c3F)cc12 [Compound 1164, 5-(2,3-Difluorophenyl)-N-(1-(oxetan-3-yl)piperidin-4-yl)-1H-indazole-3-carboxamide] | 49 |  |  |  | 1400 | 
CN(C(=O)c1n[nH]c2ccc(-c3cncc(CN4CCCCC4)c3)cc12)c1cccnc1 [Compound 76, N-Methyl-5-(5-(piperidin-1-ylmethyl)pyridin-3-yl)-N-(pyridin-3-yl)-1H-indazole-3-carboxamide] | 990 |  |  |  | 6500 | 
N[C@H]1CC[C@@H](NC(=O)c2n[nH]c3ccc(-c4cccnc4)cc23)CC1 [Compound 1285, N-((1s,4s)-4-Aminocyclohexyl)-5-(pyridin-3-yl)-1H-indazole-3-carboxamide] | 35 |  |  |  | > 10000 | 
5-(5-(Piperidin-1-ylmethyl)pyridin-3-yl)-N-(2-(pyrrolidin-1-yl)pyridin-4-yl)-1H-indazole-3-carboxamide [Compound 100] | 2 |  |  |  |  | 2600
CN1CCC(NC(=O)c2n[nH]c3ccc(-c4cc(CN5CCCCC5)cc(F)c4F)cc23)CC1 [Compound 272, 5-(2,3-Difluoro-5-(piperidin-1-ylmethyl)phenyl)-N-(1-methylpiperidin-4-yl)-1H-indazole-3-carboxamide] | 15 |  |  |  | 1700 | 
Cc1cc2[nH]nc(C(=O)Nc3cccnc3)c2cc1-c1cccnc1 [Compound 44, 6-Methyl-N,5-di(pyridin-3-yl)-1H-indazole-3-carboxamide] | 23 |  |  |  | 6120 | 
O=C(Nc1ccc(F)cc1)c1n[nH]c2ccc(-c3cncc(F)c3)cc12 [Compound 1341, N-(4-Fluorophenyl)-5-(5-fluoropyridin-3-yl)-1H-indazole-3-carboxamide] | 36 |  |  |  | 4800 | 
CC(C)(F)CN1CCC(NC(=O)c2n[nH]c3ccc(-c4cccnc4)cc23)CC1 [Compound 1309, N-(1-(2-Fluoro-2-methylpropyl)piperidin-4-yl)-5-(pyridin-3-yl)-1H-indazole-3-carboxamide] | 7 |  |  |  | 2260 | 
N[C@H]1CC[C@H](NC(=O)c2n[nH]c3ccc(-c4cccnc4)cc23)CC1 [Compound 1286, N-((1r,4r)-4-Aminocyclohexyl)-5-(pyridin-3-yl)-1H-indazole-3-carboxamide] | 2 |  |  |  | 3700 | 
CN(C)[C@H]1CC[C@@H](NC(=O)c2n[nH]c3ccc(-c4cccnc4)cc23)CC1 [Compound 1287, N-((1s,4s)-4-(Dimethylamino)cyclohexyl)-5-(pyridin-3-yl)-1H-indazole-3-carboxamide] | 37 |  |  |  | > 10000 | 
O=C(Nc1ccc(CN2CCCC2)cc1)c1n[nH]c2ccc(-c3cncc(Cl)c3)cc12 [Compound 1330, 5-(5-Chloropyridin-3-yl)-N-(4-(pyrrolidin-1-ylmethyl)phenyl)-1H-indazole-3-carboxamide] | 3 |  |  |  | 5500 | 
O=C(NC1CCN(CC(F)F)CC1)c1n[nH]c2ccc(-c3cncc(F)c3)cc12 [Compound 1298, N-(1-(2,2-Difluoroethyl)piperidin-4-yl)-5-(5-fluoropyridin-3-yl)-1H-indazole-3-carboxamide] | 28 |  |  |  | 1200 | 
